# The supplement of paper PMC10307832
# Legend:
# Assay in all cases: relative viability (nuclei count vs DMSO), 5 days (fraction); higher = more cells survive
# [1] = compound: CCn1c(-c2nonc2N)nc2cnc(Oc3cccc(NC(=O)c4ccc(OCCN5CCOCC5)cc4)c3)cc21 + Cc1nc(NC(=O)N2CCC[C@H]2C(N)=O)sc1-c1ccnc(C(C)(C)C(F)(F)F)c1 [Alpelisib] (partner 2 µM)
# Procedure, shortened: (§1)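 Relative viability was taken as the ratio of nuclei in treated wells to nuclei in vehicle wells. Lung cancer cell lines in 1536-well plates received compounds by pin tool one day after seeding, either one drug alone or a fixed anchor-drug dose plus five library-drug doses (not always all listed) in √10 steps. Nuclei were counted on 4× images after 5 days of treatment, and values are medians of duplicate plates.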
# [2] = compound: CCC1=CN=CN=C1N2CCN(CC2)CC3=NC4=C(N3)C=C(C=C4)C(F)(F)F + NC(=O)Nc1cc(-c2cccc(F)c2)sc1C(=O)N[C@H]1CCCNC1 [AZD7762] (partner 0.2 µM)
# Procedure, shortened: as §1
# [3] = compound: CCC1=CN=CN=C1N2CCN(CC2)CC3=NC4=C(N3)C=C(C=C4)C(F)(F)F + O=C(CCCCCCC(=O)Nc1ccccc1)NO [Vorinostat] (partner 1 µM)
# Procedure, shortened: as §1
# [4] = compound: CCn1c(-c2nonc2N)nc2cnc(Oc3cccc(NC(=O)c4ccc(OCCN5CCOCC5)cc4)c3)cc21 + CC(C)C[C@H](NC(=O)[C@H](Cc1ccccc1)NC(=O)c1cnccn1)B(O)O [Bortezomib] (partner 0.002 µM)
# Procedure, shortened: as §1
Cell Line,relative viability ([1]; first compound 0.04 µM),relative viability ([1]; first compound 0.1265 µM),relative viability ([1]; first compound 0.4 µM),relative viability ([1]; first compound 1.265 µM),relative viability ([1]; first compound 4 µM),relative viability ([2]; first compound 0.04 µM),relative viability ([2]; first compound 0.1265 µM),relative viability ([2]; first compound 0.4 µM),relative viability ([2]; first compound 1.265 µM),relative viability ([2]; first compound 4 µM),relative viability ([3]; first compound 0.04 µM),relative viability ([3]; first compound 0.1265 µM),relative viability ([3]; first compound 0.4 µM),relative viability ([3]; first compound 1.265 µM),relative viability ([3]; first compound 4 µM),relative viability ([4]; first compound 0.04 µM),relative viability ([4]; first compound 0.1265 µM),relative viability ([4]; first compound 0.4 µM),relative viability ([4]; first compound 1.265 µM),relative viability ([4]; first compound 4 µM)
HCC-827,1.11,0.973,0.996,1.07,0.947,0.186,0.233,0.208,0.196,0.174,0.895,0.856,0.788,0.781,0.744,0.99,1.04,0.906,0.666,0.885
HOP-62,1.11,1.01,0.925,0.824,1.01,0.491,0.439,0.602,0.558,0.746,0.604,0.56,0.462,0.429,0.606,0.875,0.829,0.816,0.756,0.212
LC-2-ad,0.945,0.542,0.797,0.658,0.515,0.87,0.807,0.823,0.81,0.804,0.737,0.652,0.636,0.687,0.682,1.1,0.936,0.756,0.448,0.281
LCLC-97TM1,0.276,0.236,,0.3,0.305,0.263,0.206,0.22,0.309,0.274,0.607,0.685,0.642,0.711,0.751,0.662,0.896,0.397,,0.247
LCLC-103H,1.2,0.935,0.961,1.11,1.03,0.776,0.774,0.794,0.684,0.865,0.797,0.685,0.746,0.668,0.717,1.08,1.11,0.932,0.651,0.716
LOU-NH91,0.759,0.619,0.652,0.55,0.566,0.758,0.743,0.72,0.634,0.831,0.842,0.907,0.927,0.76,0.993,0.561,0.526,0.439,0.343,0.377
LU99A,0.769,0.642,0.447,0.51,0.46,0.41,0.301,0.34,0.359,0.403,0.608,0.486,0.528,0.466,0.652,1.03,0.97,0.86,0.783,0.589
LXF-289,1.1,1.12,1,0.96,0.941,1.3,1.01,1.1,1.29,1.05,0.933,0.735,0.718,0.742,0.789,1.03,1.04,0.932,0.728,0.646
NCI-H23,0.874,0.831,,0.604,0.495,0.25,0.202,0.162,0.229,0.325,0.567,0.65,0.453,0.606,0.808,1.44,1.16,,0.856,0.512
NCI-H322M,0.895,0.816,0.759,0.939,0.909,0.538,0.591,0.572,0.511,0.653,1.12,0.855,0.859,0.621,0.912,1.2,1.26,1.22,1.58,1.55
NCI-H441,0.688,0.834,0.68,0.599,0.44,1.29,1.15,1.03,1.15,1.21,0.777,0.8,0.659,0.651,0.868,0.484,0.895,0.458,0.42,0.374
NCI-H460,0.72,0.452,0.444,0.205,0.15,0.622,0.528,0.619,0.578,0.6,0.819,0.69,0.708,0.684,0.672,1.09,1.03,0.716,0.5,0.26
NCI-H596,0.482,0.51,0.612,0.49,0.55,1.21,1.07,1.07,0.992,1.08,0.534,0.56,0.618,0.562,0.623,0.985,0.905,0.924,0.8,0.746
NCI-H647,1.04,0.746,0.795,0.657,0.577,0.438,0.476,0.457,0.471,0.554,0.453,0.591,0.414,0.364,0.543,0.847,0.654,0.614,0.536,0.631
NCI-H650,1.31,0.893,0.745,0.434,0.492,0.844,0.909,1.01,1.29,0.946,0.414,0.455,0.448,0.363,0.477,1.14,0.631,0.349,0.295,0.374
NCI-H727,0.745,0.833,0.751,0.84,0.713,0.641,0.593,0.522,0.566,0.541,1.22,1.08,1.09,1.03,1.35,1.44,0.983,0.787,0.97,0.88
